From publication PMC4052326, “Alterporriol-Type Dimers from the Mangrove Endophytic Fungus, Alternaria sp. (SK11), and Their MptpB Inhibitions” (Marine Drugs, 2014)

Molecular target: T1, Mycobacterium tuberculosis protein tyrosine phosphatase B (MptpB) (Mycobacterium tuberculosis, UniProt I6WXK4)
T1 construct: The full-length PTPB gene was amplified from genomic DNA of the Mtb H37Rv strain; His6 (N); made in house
Test: biochemical
Type: biochemical
Conditions: for IC50: MptpB, substrate DiFMUP, average of two independent experiments, sodium orthovanadate as positive control

T1 sequence (I6WXK4 whole entry, looked up): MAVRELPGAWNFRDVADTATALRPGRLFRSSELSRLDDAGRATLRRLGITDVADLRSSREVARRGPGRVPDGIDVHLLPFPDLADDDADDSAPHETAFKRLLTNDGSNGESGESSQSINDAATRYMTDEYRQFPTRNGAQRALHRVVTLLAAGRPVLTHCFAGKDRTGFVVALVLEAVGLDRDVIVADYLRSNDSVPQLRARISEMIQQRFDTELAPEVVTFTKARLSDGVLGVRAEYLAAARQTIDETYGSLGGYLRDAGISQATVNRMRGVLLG

Row | Compound | IC50 | inhibitory activity against MptpB (result in words)
1 | COc1cc(O)c2c(c1O)C(c1cc(O)c3c(c1O)C(=O)C1=C(CC(O)C(C)(O)C1)C3=O)C1CC(C)(O)C(O)C(O)C1C2=O (stereo not shown) [Compound 1, alterporriol S] | 64.7 µM | –
2 | COc1cc(O)c2c(c1)C(=O)c1cc(C)c(O)c(-c3c(OC)cc4c(c3O)C(=O)C3=C(C4=O)[C@@H](O)[C@](C)(O)[C@H](O)[C@H]3O)c1C2=O [Compound 2, (+)-aS-alterporriol C] | 8.7 µM | strong inhibitory activity
3 | [Na+].[Na+].[Na+].[O]=[V]([O-])([O-])[O-] [Control, sodium orthovanadate, reference compound] | 0.05 µM | –
